The results in this text go back to ChEMBL document CHEMBL3774310, “Discovery of antitumor anthra[2,3-b]furan-3-carboxamides: Optimization of synthesis and evaluation of antitumor properties” (Eur J Med Chem, 2016).

By Kd is commonly meant the equilibrium constant for the complex coming apart. By IC50 is commonly meant the concentration at which inhibition is half-maximal. High values mean weaker potency in that assay, low ones greater potency in that assay.

Each structure is given as a SMILES string.

Series [1] concerns P388. In words: Antitumor activity against mouse P388 cells transplanted in DBA2/BDF1 mouse assessed as mean life span at 50 mg/kg, ip dosed daily for 5 days relative to control. Type of series: functional.
Series [2] deals with P388. In words: Antitumor activity against mouse P388 cells transplanted in DBA2/BDF1 mouse assessed as mean life span at 30 mg/kg, ip dosed daily for 5 days (reference value: 9.7 +/- 1.1 day). Type of series: functional.
Series [3] deals with Calf thymus DNA. In words: Binding affinity to calf thymus DNA assessed as dissociation constant by Scatchard plot analysis. Type of series: nucleic-acid assay, Bos taurus.
Series [4] deals with L1210. In words: cells. Particulars: Mus musculus, L1210, 48 h.
Description: Antiproliferative activity against mouse L1210 cells after 48 hrs by MTT assay
In series [5] the target is Aurora kinase B (Homo sapiens, UniProt Q96GD4). As to the kind of experiment: Inhibition of full length human N-terminal GST-HIS6-tagged Aurora B expressed in sf9 cells by flashplate based radiometric 33pan-quinase assay.
Aurora kinase B, sequence (Q96GD4 whole entry): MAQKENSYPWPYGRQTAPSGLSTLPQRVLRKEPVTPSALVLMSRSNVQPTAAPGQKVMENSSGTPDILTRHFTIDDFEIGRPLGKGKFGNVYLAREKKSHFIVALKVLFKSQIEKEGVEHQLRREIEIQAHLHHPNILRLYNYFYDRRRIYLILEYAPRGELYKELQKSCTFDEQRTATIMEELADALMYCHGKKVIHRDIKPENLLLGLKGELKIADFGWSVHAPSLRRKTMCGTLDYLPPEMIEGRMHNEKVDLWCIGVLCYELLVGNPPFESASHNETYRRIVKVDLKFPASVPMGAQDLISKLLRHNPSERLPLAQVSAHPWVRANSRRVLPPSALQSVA
In series [6] the target is Aurora kinase C (Homo sapiens, UniProt Q9UQB9). In words: Inhibition of full length human N-terminal GST-HIS6-tagged Aurora C expressed in sf9 cells by flashplate based radiometric 33pan-quinase assay.
Aurora kinase C, sequence (Q9UQB9 whole entry): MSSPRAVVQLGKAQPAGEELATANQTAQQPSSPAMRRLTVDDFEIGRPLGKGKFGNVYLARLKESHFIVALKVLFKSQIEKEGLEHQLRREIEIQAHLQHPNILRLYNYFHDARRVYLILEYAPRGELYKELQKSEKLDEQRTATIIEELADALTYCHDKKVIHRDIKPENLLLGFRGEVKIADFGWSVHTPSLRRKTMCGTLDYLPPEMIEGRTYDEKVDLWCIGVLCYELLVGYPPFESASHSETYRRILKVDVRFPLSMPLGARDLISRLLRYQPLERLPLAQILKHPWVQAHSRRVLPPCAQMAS
In series [7] the target is Mitogen-activated protein kinase kinase kinase 7 (Homo sapiens, UniProt O43318). As to the kind of experiment: Inhibition of human MAP3K7 by flashplate based radiometric 33pan-quinase assay.
Mitogen-activated protein kinase kinase kinase 7, sequence (O43318 whole entry): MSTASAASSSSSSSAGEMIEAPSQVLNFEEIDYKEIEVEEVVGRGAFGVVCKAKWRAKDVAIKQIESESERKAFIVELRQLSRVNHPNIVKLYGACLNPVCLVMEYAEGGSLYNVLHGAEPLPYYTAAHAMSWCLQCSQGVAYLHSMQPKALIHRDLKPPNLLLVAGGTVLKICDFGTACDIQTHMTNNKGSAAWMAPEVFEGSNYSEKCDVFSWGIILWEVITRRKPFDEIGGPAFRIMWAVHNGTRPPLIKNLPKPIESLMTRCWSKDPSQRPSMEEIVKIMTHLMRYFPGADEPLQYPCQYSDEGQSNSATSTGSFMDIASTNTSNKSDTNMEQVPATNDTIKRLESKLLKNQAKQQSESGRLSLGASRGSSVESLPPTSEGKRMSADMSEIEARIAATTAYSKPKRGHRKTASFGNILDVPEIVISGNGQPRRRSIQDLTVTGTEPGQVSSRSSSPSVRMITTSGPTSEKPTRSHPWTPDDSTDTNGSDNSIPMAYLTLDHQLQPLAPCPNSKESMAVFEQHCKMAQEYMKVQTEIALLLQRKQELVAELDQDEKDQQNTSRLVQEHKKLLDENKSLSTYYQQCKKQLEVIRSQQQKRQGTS
Series [8] addresses Serine/threonine-protein kinase tousled-like 1 (Homo sapiens, UniProt Q9UKI8). As to the kind of experiment: Inhibition of human N-terminal FLAG, C-terminal HIS8-tagged TLK1 expressed in sf9 cells by flashplate based radiometric 33pan-quinase assay.
For series [9], the system named is Mus musculus. In words: Toxicity in DBA2/BDF1 mouse transplanted with mouse P388 cells assessed as spleen mass at 50 mg/kg, ip dosed daily for 5 days (reference value: 142 mg). Type of series: organism-based. Particulars: in vivo, 120 h.
In series [10] the test system is P388. As to the kind of experiment: Antitumor activity against mouse P388 cells transplanted in DBA2/BDF1 mouse assessed as mean life span at 10 mg/kg, ip dosed daily for 5 days relative to control. Type of series: functional.
The test system of series [11] is P388. In words: Antitumor activity against mouse P388 cells transplanted in DBA2/BDF1 mouse assessed as mean life span at 20 mg/kg, ip dosed daily for 5 days relative to control. Type of series: functional.
The subject of series [12] is P388. In words: Antitumor activity against mouse P388 cells transplanted in DBA2/BDF1 mouse assessed as mean life span at 40 mg/kg, ip dosed daily for 5 days relative to control. Type of series: functional.

Serine/threonine-protein kinase tousled-like 1, sequence (Q9UKI8 whole entry): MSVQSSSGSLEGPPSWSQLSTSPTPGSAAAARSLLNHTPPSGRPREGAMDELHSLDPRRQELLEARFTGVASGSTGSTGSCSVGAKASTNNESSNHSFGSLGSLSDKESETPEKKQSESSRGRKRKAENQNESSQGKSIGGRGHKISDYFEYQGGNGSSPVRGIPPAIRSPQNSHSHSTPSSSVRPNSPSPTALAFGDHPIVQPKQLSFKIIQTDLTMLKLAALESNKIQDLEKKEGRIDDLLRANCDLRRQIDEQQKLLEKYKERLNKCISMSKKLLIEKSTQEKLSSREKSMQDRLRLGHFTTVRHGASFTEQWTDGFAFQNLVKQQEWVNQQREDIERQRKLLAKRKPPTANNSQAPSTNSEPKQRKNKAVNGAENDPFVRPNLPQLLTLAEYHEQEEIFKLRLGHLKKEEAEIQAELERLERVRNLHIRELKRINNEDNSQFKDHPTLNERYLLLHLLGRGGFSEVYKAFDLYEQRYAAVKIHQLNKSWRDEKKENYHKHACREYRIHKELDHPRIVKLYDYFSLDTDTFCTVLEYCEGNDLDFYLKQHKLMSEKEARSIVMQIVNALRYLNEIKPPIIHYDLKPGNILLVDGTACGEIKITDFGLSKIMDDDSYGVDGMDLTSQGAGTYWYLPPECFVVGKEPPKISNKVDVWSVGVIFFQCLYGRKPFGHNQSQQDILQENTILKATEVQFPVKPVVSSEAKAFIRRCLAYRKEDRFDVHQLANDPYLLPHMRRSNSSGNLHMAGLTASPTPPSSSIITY

For `CS(=O)(=O)O.Cc1oc2c(O)c3c(c(O)c2c1C(=O)N1CC[C@@H](N)C1)C(=O)c1ccccc1C3=O`, the Activity amounted to 178% in series [1] and 11.8 days in series [2]. The Kd in [3] was 2 µM. In series [4], this compound displayed an IC50 of 1.9 µM.
For the compound `CS(=O)(=O)O.Cc1oc2c(O)c3c(c(O)c2c1C(=O)N1CC[C@H](N)C1)C(=O)c1ccccc1C3=O`, the IC50 in series [5], in series [6], in series [7] and in [8] was under 5 µM throughout. The Activity in [9] amounted to 87 mg; in [10] it was 170%; in series [11], 222%; in [12], 262%.
